Experimental data taken from patent publication US4923865A, “Substituted 1-(1H-imidazol-4-yl)alkyl-benzamides as anti-ischemics and as alpha-2-adrenergic receptor agonists” (U C B Societe Anonyme, priority 1988, dated 1990).
Where two headings read alike, the source gives them in different places.

How the values were obtained:
[1] = molecular target: T1, presynaptic α2 -adrenergic receptors (Cavia porcellus, UniProt Q60474); test: Inhibition of the contraction of electrically stimulated guinea-pig ileum
T1 construct: Stimulation of a guinea-pig ileum; from tissue; host or cells: guinea-pig ileum longitudinal muscle strips
T1 sequence (Q60474 1-464): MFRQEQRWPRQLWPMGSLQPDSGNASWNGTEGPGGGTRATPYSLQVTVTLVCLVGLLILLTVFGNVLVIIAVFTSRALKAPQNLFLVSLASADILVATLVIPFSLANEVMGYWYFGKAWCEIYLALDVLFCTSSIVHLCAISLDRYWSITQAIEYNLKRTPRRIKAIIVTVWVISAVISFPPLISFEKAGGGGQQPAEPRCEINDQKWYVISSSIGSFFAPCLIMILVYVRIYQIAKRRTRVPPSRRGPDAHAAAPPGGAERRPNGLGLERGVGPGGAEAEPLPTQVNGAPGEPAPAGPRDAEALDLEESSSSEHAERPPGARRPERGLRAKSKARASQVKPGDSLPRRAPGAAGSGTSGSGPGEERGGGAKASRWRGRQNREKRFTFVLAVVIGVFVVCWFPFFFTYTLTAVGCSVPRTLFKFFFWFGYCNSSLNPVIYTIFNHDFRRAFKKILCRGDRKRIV
Excerpt: (c) Stimulation of a guinea-pig ileum. Longitudinal muscles strips attached to an isometric strain gauge are suspended in Tyrode's solution and are stretched under a tension of 1 g (G. M. DREW. Brit. J. Pharmacol. 64, (1978), 293-300; M. ANDREJAK et al., Naunyn-Schmiedelberg's Arch. Pharmacol. 314, (1980), 83-87).
Electrical stimulation of the parasympathetic nerves associated with the ileum fragments causes a contraction of the muscle. This contraction is reduced in the presence of a presynaptic α2 -agonist and the magnitude by which the contraction is reduced depends on the concentration of the agonist used. This effect is antagonized by the simultaneous presence of an α2 -antagonist such as α-yohimbine. The compounds to be studied have been tested at increasing concentrations ranging from 10^-10 to 10^-3 mole/l.
The concentration (IC50 in mole/l) that reduces by 50% the intensity of the contraction of the muscle is determined.
In the presence of α-yohimbine at a concentration of 10^-6 mole/l, the concentration of the compounds A or B, for example, that is required for reducing muscle contraction intensity by 50% is higher, and becomes greater than 10^-6 mole/l, which gives additional confirmation that the compounds of the invention act really at the level of the presynaptic α2 -adrenergic receptors.

male NMRI mice = test: Toxicity, Irwin's test (lethal dose); assay type: in vivo; settings: intraperitoneal
Method: 5. Toxicity. The toxicity of the compounds according to the present invention has been determined in male NMRI mice by means of Irwin's test (S. IRWIN, Psychopharmacologia, 13, (1968), 222-257).
Progressive doses of the test compound are administered intraperitoneally to groups of three mice until the lethal dose is reached (dose causing the death of two out of three animals within 48 hours). In Table IX below, the lethal dose in mg/kg found for the compounds of the invention is given. It can be seen from this Table that the compounds of the invention are not very toxic.

myocardial ischemia = test: Artificially induced acute coronary insufficiency in an awake dog (ST-segment elevation); assay type: in vivo; settings: Canis lupus familiaris, 0.1 h, intravenous, 6 min coronary occlusion, groups of ten animals, read-out: DE20 (dose producing a mean reduction of at least 20% of the ST-segment elevation)
Excerpt: Because of the reduction in the oxygen supply which results from this, the occlusion produces myocardial ischemia which is expressed on the electrocardiogram by a reproducible and quantifiable ST-segment elevation. The anti-ischemic action of a compound results in a reduction of the magnitude of the ST-segment elevation. (P. R. MAROKO and E. BRAUNWALD, Circulation, 53, (1976, Suppl. I), 162-168; S. E. EPSTEIN et al., Circulation, 53, (1976, Suppl. I), 191-197).

[2] = molecular target: T1, presynaptic α2 -adrenergic receptors; test: Stimulation of the isolated guinea-pig atria (reduction in tachycardia); settings: isolated guinea-pig atria, electrical stimulation; read-out: IC30 (30% reduction in the maximum tachycardia)
Excerpt: (b) Stimulation of the isolated guinea-pig atria. The release of noradrenalin at the level of the nerve endings is mediated by a feedback regulating mechanism through the presynaptic α2 -adrenergic receptors. […] Ed. D. S. DAVIES, J. L. REID, Pitman, London.
The electrical stimulation of the isolated guinea-pig atria induces a release of noradrenalin which results in an increase in the rate of the heart beat (tachycardia). This tachycardia is inhibited by an α2 -agonist such as, for example, clonidine, in a proportion which depends on the dose of the agonist used. The action of the α2 -agonist may be limited in the presence of an α2 -specific antagonist such as α-yohimbine.
The in vitro activity of the compounds of the invention on the presynaptic α2 -adrenergic receptors has been studied on the isolated guinea-pig atria, electrically stimulated according to the method described by I. C. MEDGETT et al., Naunyn-Schmiedeberg's Arch. Pharmacol. 304, (1978), 215-221. The compound to be studied is tested in increasing concentrations ranging from 10^-10 to 10^-3 mole/l. The concentration (IC30 in mole/l) which causes a 30% reduction in the maximum tachycardia obtained initially during the electrical stimulation of the atria in the absence of the compound to be tested, is determined.
On the other hand, in the presence of a concentration of 10^-6 mole/l of α-yohimbine, the concentration of compound A necessary to obtain a reduction of 30% in the tachycardia is greater than 10^-7 mole/l.

[3] = test system: stenosis at the level of a coronary artery; test: Effort trial on a moving belt in dogs with coronary artery stenosis; assay type: in vivo, dog; settings: maximum effort at 12 Km/h for 1 minute
Method: (b) Effort trial on a moving belt. In this test, a group of at least four dogs is used (equipped with intracardiac electrodes), the dogs having an organic stenosis at the level of a coronary artery. This stenosis causes imbalance between the demand and supply of oxygen when the animal is required to make an effort. This imbalance is expressed on the electrocardiogram by an increase in the ST-segment.
In the trial, the dog runs at a speed of 12 km/h on a moving belt having a slope of 15°. This maximum effort is required for one minute. During the trial, the increase in the ST-segment is recorded, together with the natural increase in the pulse rate. The experiment is repeated at least four times, and the mean of the values obtained is taken as reference (100%) for the group of animals. The animals are then allowed to rest for a minimum of 24 hours before being subjected to a new effort trial under the influence of the compound to be studied.
The compound to be studied is administered slowly (over 1 minute) by intravenous injection 5 minutes before the new effort trial. In the course of the latter, the variations in the same parameters are recorded.

[4] = guinea-pig ileum, electrical stimulation, read-out: IC50 (reduces by 50% the intensity of the contraction of the muscle)

| SMILES | IC50 [1, 4] [nM] | lethal dose (death of two out of three animals within 48 hours) (male NMRI mice) [mg/kg] | ED20 (myocardial ischemia) [µmol/kg] | other results |
| --- | --- | --- | --- | --- |
| CC(c1c[nH]cn1)c1cccc(C(N)=O)c1O.Cl (single isomer, unassigned; (+)) [P, (+)-2-hydroxy-3-[1-(1H-imidazol-4-yl)ethyl]-benzamide hydrochloride] | 2 | 294 |  |  |
| CC(c1c[nH]cn1)c1cccc(C(N)=O)c1O.Cl (stereo not drawn) [B, 2-hydroxy-3-[1-(1H-imidazol-4-yl)ethyl]-benzamide hydrochloride] | 3 | 267 | 0.02 | IC30 [2]: 0.75 nM; IC50 ([1]; in the presence of 10^-6 mole/l of α-yohimbine, read-out: concentration required for reducing muscle contraction intensity by 50%): > 1000 nM |
| CNC(=O)c1cccc(Cc2c[nH]cn2)c1O.Cl [C, 2-hydroxy-3-[(1H-imidazol-4-yl)methyl]-N-methylbenzamide hydrochloride] |  | 267 | 0.3 | reduction in ST-segment ([3]; dose 0.32 μmole/kg i.v.): 50%; reduction in the pulse rate ([3]; dose 0.32 μmole/kg i.v.): 1 beats/min.; IC30 [2]: 130 nM |
| NNC(=O)c1cccc(Cc2c[nH]cn2)c1O [Compound D, 2-hydroxy-3-[(1H-imidazol-4-yl)methyl]-benzohydrazide] |  | 232 | 3 | IC30 [2]: 220 nM |
| Cl.O=C(NCCO)c1cccc(Cc2c[nH]cn2)c1O [E, 2-hydroxy-N-(2-hydroxyethyl)-3-[(1H-imidazol-4-yl)methyl]-benzamide hydrochloride] | 60000 | 893 | < 3 |  |
| COc1c(Cc2c[nH]cn2)cccc1C(N)=O.Cl [F, 3-[(1H-imidazol-4-yl)methyl]-2-methoxybenzamide hydrochloride] | 70000 | 802 | < 3 | IC30 [2]: 70 nM |
| NC(=O)c1cc(Cc2c[nH]cn2)ccc1O [G, 2-hydroxy-5-[(1H-imidazol-4-yl)methyl]-benzamide] |  | 651 | < 1 |  |
| CN(C)C(=O)c1cccc(Cc2c[nH]cn2)c1O [H, 2-hydroxy-3-[(1H-imidazol-4-yl)methyl]-N,N-dimethylbenzamide] |  | 245 |  |  |
| Cl.NC(=O)c1c(O)ccc(Cc2c[nH]cn2)c1O [I, 2,6-dihydroxy-3-[(1H-imidazol-4-yl)methyl]-benzamide hydrochloride] | 300 | > 270 | 0.32 |  |
| CC(C)(C)c1cc(Cc2c[nH]cn2)c(O)c(C(N)=O)c1 [J, 5-tert-butyl-2-hydroxy-3-[(1H-imidazol-4-yl)methyl]-benzamide] | 30000 |  |  |  |
| Cc1ccc(Cc2c[nH]cn2)c(O)c1C(N)=O.Cl [K, 2-hydroxy-3-[(1H-imidazol-4-yl)methyl]-6-methylbenzamide hydrochloride] |  | > 268 | 0.32 |  |
| Cc1ccc(C(N)=O)c(O)c1Cc1c[nH]cn1 [L, 2-hydroxy-3-[(1H-imidazol-4-yl)methyl]-4-methylbenzamide] | 30 | 231 |  |  |
| Cl.O=C(NO)c1cccc(Cc2c[nH]cn2)c1O [M, N,2-dihydroxy-3-[(1H-imidazol-4-yl)methyl]-benzamide hydrochloride] | 400 | > 288 |  |  |
| CC(c1c[nH]cn1)c1ccc(O)c(C(N)=O)c1O.Cl (stereo not drawn) [N, 2,6-dihydroxy-3-[1-(1H-imidazol-4-yl)ethyl]-benzamide hydrochloride] |  | 284 |  |  |
| Cc1c(Cc2c[nH]cn2)ccc(O)c1C(N)=O.Cl [O, 6-hydroxy-3-[(1H-imidazol-4-yl)methyl]-2-methylbenzamide hydrochloride] |  | > 268 |  |  |
| Clc1cccc(Cl)c1N=C1NCCN1 [clonidine, reference compound] | 20 |  |  | IC30 [2]: 3.2 nM |
| CC(C)NCC(O)COc1cccc2ccccc12 (stereo not drawn) [propranolol, 1-(isopropylamino)-3-(1-naphthyloxy)-2-propanol, reference compound] |  |  | 2 | reduction in ST-segment ([3]; dose 1.0 μmole/kg i.v.): 74%; reduction in the pulse rate ([3]; dose 1.0 μmole/kg i.v.): 35 beats/min. |
